Tested on: facial skin vasodilation induced by electrical trigeminal ganglion stimulation
Assay: Measurement of facial skin blood flow (vasodilation induced by electrical trigeminal ganglion stimulation, laser Doppler flowmetry)
Assay type: in vivo, rat
Settings: for % of trigeminus stimulation: anaesthetized male wistar rats
Procedure: Facial skin blood flow was measured by a modified method described by Escott et al. ([…]., Connor, H. E., Brain, S. D. (1995), Trigeminal ganglion stimulation increases facial skin blood flow in the rat a major role for calcitonin gene-related peptide, Brain Research, 669(1), 93-99). Fasted male wistar rats (strain CHbb:THOM, 280-320g) were anaesthetized with sodium pentobarbitone (initially with 60 mg/kg i.p. and maintained throughout the experiment with an intraperitoneal infusion of 30 mg/kg/h through a 23 G needle using a solution of 10 mg/ml). Both sides of the buccal area of the facial skin were shaved and depilated with a commercial depilatory […], Germany). The trachea was cannulated and the animals were artificially respired (80 strokes/min) with room air supplemented with oxygen. The body temperature was maintained at 37°C by an automated heating pad. The left femoral artery and the left femoral vein were cannulated for the continuous measurement of arterial blood pressure and intravenous administration of test compounds, respectively. […] Heart rate was derived from the blood pressure signal. Blood pressure and heart rate were continuously monitored throughout the course of the experiment to assess the level of anaesthesia and to monitor the cardiovascular effects of the drugs used in this study. The animals were placed in a stereotaxic frame and a longitudinal incision was made in the scalp. […] The position of the electrodes in the trigeminal ganglia were checked visually at the end of each experiment following removal of the brain. The trigeminal ganglion was stimulated at 10 Hz, 1 mA, 1 msec for 30 seconds using a stimulator supplied by Hugo Sachs Elektronik (79232 March-Hugstetten, Germany). Microvascular blood flow changes in the facial skin were measured by Laser Doppler flowmetry with a Periflux laser doppler system (PeriFLUX 4001, wave length […]; time constant 3 s, Perimed AB, Järfälla, S-17526, Sweden). Standard laser doppler probes (PROBE 408) were positioned on either side of the face approximately 0.5 cm below the centre of the eye, an area innervated by the maxillary branch (V2) of the trigeminal nerve. Blood flow changes were measured as flux in arbitrary units and expressed as area under the flux curve (mm^2) according to Escott et al. (1995). […] The first stimulation was used as a control for the subsequent stimulations.

**Q.** With `NCCCC[C@H](NC(=O)[C@@H](Cc1cc(Br)c(O)c(Br)c1)NC(=O)N1CCC(N2Cc3ccccc3NC2=O)CC1)C(=O)N1CCN(c2ccncc2)CC1` [BIBN 4096 BS, 1-[N^2-[3,5-Dibromo-N-[[4-(3,4-dihydro-2(1H)-oxochinazolin-3-yl)-1-piperidinyl]-carbonyl]-D-tyrosyl]-L-lysyl]-4-(4-pyridinyl)-piperazine] as the compound, how does the “% of trigeminus stimulation” value (BIBN 4096 BS 0.03 mg/kg intravenously 5 min prior to second stimulation, mean ± spread) read?
**A.** The value was 60.3 ± 5.1%.

**Q.** And the “% inhibition compared to control value” (BIBN 4096 BS 0.03 mg/kg intravenously 5 min prior to second stimulation, versus saline control)?
**A.** Its value is 27.1%.

**Q.** Which “% inhibition compared to control value” (rat, in vivo) does the source give for `CN1C[C@H](C(=O)N[C@]2(C)O[C@@]3(O)[C@@H]4CCCN4C(=O)[C@H](Cc4ccccc4)N3C2=O)C[C@@H]2c3cccc4[nH]cc(c34)C[C@H]21` [DHE, Dihydroergotamin] here?
**A.** The value was 27.0%.

**Q.** How did the “% of trigeminus stimulation” value (Sumatriptan 1.0 mg/kg intravenously 5 min prior to second stimulation) turn out when `CNS(=O)(=O)Cc1ccc2[nH]cc(CCN(C)C)c2c1` [Sumatriptan, sumatriptan] was run?
**A.** The value was 68.8 ± 6.8%.

**Q.** And the “% inhibition compared to control value” (Sumatriptan 1.0 mg/kg intravenously 5 min prior to second stimulation, versus saline control)?
**A.** Its value is 16.8%.

**Q.** For `CN(C)CCc1c[nH]c2ccc(C[C@H]3COC(=O)N3)cc12` [Zolmitriptan, zolmitriptan], which “% of trigeminus stimulation” value (Zolmitriptan 0.1 mg/kg intravenously 5 min prior to second stimulation) is on record?
**A.** Its value is 55.6 ± 4.8%.

**Q.** And the “% inhibition compared to control value” (Zolmitriptan 0.1 mg/kg intravenously 5 min prior to second stimulation, versus saline control)?
**A.** Its value is 32.8%.

— EP1420790B1, “USE OF BIBN4096 IN COMBINATION WITH OTHER ANTIMIGRAINE DRUGS FOR THE TREATMENT OF MIGRAINE” (Boehringer Ingelheim Pharma GmbH & Co.KG, priority 2001, dated 2003)
